Data on two compounds can be found in patent US20200276150A1, “PARENTERAL FORMULATIONS OF MACROLIDE ANTIBIOTICS” (Tetard, Inc., priority 2010, published 2020).

Series [1] is described as follows: HPLC assay and total impurities of formulations (Example 6). It is filed as physicochemical. As to the method: Turbid samples were centrifuged prior to analysis. Total Impurities are assessed by % HPLC peak area.
Series [2] can be described thus: HPLC assay and impurity levels, autoclaved and non-autoclaved samples (Example 7). It is filed as physicochemical. The note with it: standard, no condition given. As for the experimental part:
EXAMPLE 7. Characterization of Unbuffered Formulation C Solutions with Nitrogen […] and with the Inclusion of an Antioxidant with or without a Chelating Agent. Development studies were conducted using Formulation C, Example C, and its corresponding placebo formulation. The table below details the composition of Formulation C active formulation and corresponding placebo. The solutions above were prepared by first dissolving the stabilizers in the vehicle (60 mM Tartaric acid) which was pre-prepared in nitrogen sparged water. Once dissolved, the CEM-101 API was then added slowly and allowed to mix until a complete solution was achieved. Formulations prepared were then filled into vials, crimped with an aluminium cap containing a PTFE septum and then autoclaved. Each vial was nitrogen purged prior to crimping. HPLC analyses were performed on both autoclaved and non-autoclaved samples. Refer to results in the table below for summary data on assay and impurities.

Regarding `CC[C@H]1OC(=O)[C@@](C)(F)C(=O)[C@H](C)[C@@H](O[C@@H]2O[C@H](C)C[C@H](N(C)C)[C@H]2O)[C@@](C)(OC)C[C@@H](C)C(=O)[C@H](C)[C@H]2N(CCCCn3cc(-c4cccc(N)c4)nn3)C(=O)O[C@]12C` [Preformulation], the “Total Impurities” value in series [1] worked out at 2.34 % HPLC peak area. Turning to `CC[C@H]1OC(=O)[C@@](C)(F)C(=O)[C@H](C)[C@@H](O[C@@H]2O[C@H](C)C[C@H](N(C)C)[C@H]2O)[C@@](C)(OC)C[C@@H](C)C(=O)[C@H](C)[C@H]2N(CCCCn3cc(-c4cccc(N)c4)nn3)C(=O)O[C@]12C` [STD 0.5 mg/mL], the “Total Impurities” value in series [2] worked out at 1.867.
